The text below walks through data of ChEMBL document CHEMBL1149982, “Synthesis and in vitro profile of 7-substituted quinoline chromanols as novel, non-acidic LTB4 antagonists” (Bioorg Med Chem Lett, 1995).

The target of experiment [1] is Leukotriene B4 receptor 1 (Homo sapiens, UniProt Q15722). In words: In vitro inhibitory activity against human neutrophil leukotriene B4 (LTB4).
The target in experiment [2] is T1, Cysteinyl leukotriene receptor 1 (Cavia porcellus, UniProt Q2NNR5).
T1 sequence (Q2NNR5 whole entry): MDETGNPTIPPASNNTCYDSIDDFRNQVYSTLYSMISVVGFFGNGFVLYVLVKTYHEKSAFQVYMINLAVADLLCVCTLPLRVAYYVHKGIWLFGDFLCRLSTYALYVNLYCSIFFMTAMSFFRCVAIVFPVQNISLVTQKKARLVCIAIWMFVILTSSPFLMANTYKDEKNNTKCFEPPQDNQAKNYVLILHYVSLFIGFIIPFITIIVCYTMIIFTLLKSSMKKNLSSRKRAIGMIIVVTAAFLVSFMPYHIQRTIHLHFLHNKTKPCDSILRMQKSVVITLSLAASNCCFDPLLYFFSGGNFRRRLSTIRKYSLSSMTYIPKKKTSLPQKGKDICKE
In words: In vitro inhibitory activity against leukotriene D4 receptor.

Experiment [3] concerns the target T1, Cysteinyl leukotriene receptor 1. In words: In vitro inhibitory activity against human leukotriene D4 (LTD4).

A value given as a limit tells only on which side of the number the result lay.

Chain of Leukotriene B4 receptor 1 (Q15722 whole entry): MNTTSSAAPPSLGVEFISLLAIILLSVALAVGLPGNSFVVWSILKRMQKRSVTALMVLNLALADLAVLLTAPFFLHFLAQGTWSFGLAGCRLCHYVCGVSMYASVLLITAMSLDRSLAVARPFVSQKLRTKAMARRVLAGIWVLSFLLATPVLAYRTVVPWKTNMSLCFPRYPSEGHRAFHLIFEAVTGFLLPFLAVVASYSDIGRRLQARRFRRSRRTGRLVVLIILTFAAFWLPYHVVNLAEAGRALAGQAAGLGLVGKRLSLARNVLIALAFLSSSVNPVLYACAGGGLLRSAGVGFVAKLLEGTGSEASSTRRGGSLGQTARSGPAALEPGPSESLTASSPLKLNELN

For `CC(Oc1ccc2c(c1)OC[C@@H](Cc1ccccn1)[C@@H]2O)c1ccc2ccccc2n1` (stereo partly specified), the Ki was 0.24 µM in experiment [1] and > 50 µM in experiment [2].

As for `C[C@H](Oc1ccc2c(c1)OC[C@@H](Cc1cccnc1)[C@@H]2O)c1ccc2ccccc2n1`, the results for the Ki in experiment [1] and in experiment [2] were 1.9 µM and > 50 µM, respectively. For `O[C@@H]1c2ccc(OCc3ccc4ccccc4n3)cc2OC[C@@H]1Cc1cccnc1`, in experiment [2], affinity was put at a Ki of 1.3 µM. The same measure, in the same setting: the figure for `O[C@@H]1c2ccc(OCc3ccc4ccccc4n3)cc2OC[C@H]1Cc1cccnc1` is 4.1 µM. With `CC(Oc1ccc2c(c1)OC[C@H](Cc1ccccn1)[C@@H]2O)c1ccc2ccccc2n1` (stereo partly specified), the results for the Ki in experiment [1] and in experiment [2] were 3.3 µM and > 50 µM, respectively.

`C[C@@H](Oc1ccc2c(c1)OC[C@@H](Cc1cccnc1)[C@@H]2O)c1ccc2ccccc2n1`: the inhibition constant (Ki) in experiment [1] is 0.33 µM; in experiment [2], > 50 µM. Regarding `O[C@@H]1c2cc(OCc3ccc4ccccc4n3)ccc2OC[C@@H]1Cc1cccnc1`, the inhibition constant (Ki) in experiment [3] worked out at 1.6 µM; in experiment [1] it was 38 µM. On to `CC(Oc1ccc2c(c1)OC[C@H](Cc1cccnc1)[C@@H]2O)c1ccc2ccccc2n1` (stereo partly specified), for which the figures for the Ki in experiment [1] and in experiment [2] were 5.2 µM and > 50 µM, respectively. Turning to `O[C@@H]1c2cc(OCc3ccc4ccccc4n3)ccc2OC[C@H]1Cc1cccnc1`, the values for the Ki in experiment [1] and in experiment [2] were 16 µM and 1 µM, respectively.

For orientation: Ki means a dissociation constant, usually derived from enzyme kinetics or from competition with a known ligand. High values mean a looser hold on the target, low ones a stronger hold on the target.
